Test results published in US20080173808A1, “PROCESS AND DEVICE FOR RESPONSE NORMALIZED LIQUID CHROMATOGRAPHY NANOSPRAY IONIZATION MASS SPECTROMETRY (RNLC-NSI-MS)” (Schering Corporation, priority 2007, published 2008).

Assay: Nanoflow ESI (NanoMate-QTOF), RNLC-NSI-MS of drug and metabolites
Conditions: Vicriviroc and its metabolites, relative LC-MS response, M35 = 100
Experimental: For experiments described herein, high performance liquid chromatography (HPLC) separations of analytes were performed at room temperature using the first HPLC system referred to in FIG. 1 as “analytical HPLC”. […] The analytical HPLC column effluent was split (mixing tee 1 or T-1 in FIG. 1) so that 15-25% of the flow was directed to a second mixing tee (T-2 in FIG. 1) connected to the NSI source and 75-85% diverted to an auxiliary detector (e.g. a radioactivity detector (10-11) or a charged aerosol detector (12-13)). Separation of metabolites was achieved using the analytical HPLC system and programmed linear changes in mobile phase composition as shown in Table 1.
A second HPLC pump, referred to in FIG. 1 as the “Response Normalizing HPLC”, was used to deliver an exactly inverse gradient. Inverse gradient was achieved by switching the aqueous mobile phase to pump B and the organic mobile phase to pump A and using the same gradient program as the one used in the analytical HPLC system. The flow rate of the Response Normalizing HPLC system was maintained between 0.1 and 0.2 mL/min. […] The “Response Normalizing Flow” was introduced into the NSI source via a second mixing tee (T-2). HPLC flows from the analytical HPLC and from the “Response Normalizing HPLC” were combined in the second mixing tee (T-2). The combined flow was delivered to the NSI (NanoMate, API, or any other ion sources) via a union (referred in FIG. 1 as “bulkhead”). For NSI experiments, the combined flow is further split using a mixing tee. The split ratio within the NSI source was manipulated by adjusting the various diameters and lengths of fused silica capillary tubing used to deliver the flow to MS and the fraction collector/waste. Approximately 1-5% of the combined flow was delivered to the NSI source for MS analysis.

## COC[C@@H](c1ccc(C(F)(F)F)cc1)N1CCN(C2(C)CCN(C(=O)c3c(C)ncnc3C)CC2)C[C@@H]1C [Vicriviroc]
0.15 mL/min normalizing flow
  Nanoflow ESI (NanoMate-QTOF) 0.15 mL/min Normalizing HPLC flow: 23.0
0.2 mL/min normalizing flow
  Nanoflow ESI (NanoMate-QTOF) 0.2 mL/min Normalizing HPLC flow: 14.3
No normalizing flow
  Nanoflow ESI (NanoMate-QTOF) Without Normalizing HPLC flow: 50.0
